Measured values published in patent US6395719B1, “Methods for increasing levels of acetylcholine” (Eli Lilly and Company, priority 1998, dated 2002).

Tests used:
[1] = test system: choline acetyltransferase (ChAT); assay: ChAT activity in hippocampus and frontal cortex homogenates of ovariectomized rats, radio-labelled assay of acetylcholine bio-synthesis; assay type: in vivo, female Sprague-Dawley rats; conditions: daily s.c. or oral gavage for 3 or 10 days, raloxifene HCl 3 mg/kg/day, estradiol benzoate 0.03 or 0.3 mg/kg/day; for levels of ChAT, difference from the sham controls: OVX rats
Procedure: Forty female Sprague-Dawley rats (weight range of 300 to 325 g, six months old) are obtained from Harlan. The animals are either bilaterally ovariectomized (OVX) or exposed to a Sham surgical procedure, and then shipped after two weeks. Upon arrival, they are housed in metal hanging cages in groups of 3 or 4 per cage and have ad libitum access to food and water for one week. Room temperature is maintained at 22.2°±1.70° C. with a minimum relative humidity of 40%. The photoperiod in the room is 12 hours light and 12 hours dark.
The animals are dosed daily by subcutaneous injection or oral gavage with either raloxifene hydrochloride, at 3 mg/kg/day in a vehicle containing 10% cyclodextrin, estradiol benzoate at 0.03 or 0.3 mg/kg/day, or vehicle control. Animals were treated for 3 or 10 days. There are twenty animals per each dosing regimen. At the appropriate time intervals, the animals are sacrificed and their brains dissected. The particular portions of the brains are homogenized and assayed. Homogenates from the hippocampus and frontal cortex were processed and determination of ChAT activity was made by a radio-labelled assay of the bio-synthesis of acetylcholine. This procedure may be found in Schoepp et al., J. Neural Transmiss., 78:183-193, 1989, the teachings of which are incorporated by reference.

[2] = test system: cognitive and memory functions; assay: Prophylactic use: cognitive and memory function by standard tests in peri- or post-menopausal women; assay type: in vivo, human; conditions: 60 mg/day oral for 1-5 years
Procedure: The methods of the present invention may also be employed in a prophylactic modality. For example, a group of peri- or post-menopausal women may have their cognitive and memory function evaluated by standard tests. Following the establishment of this baseline, the women are administered raloxifene hydrochloride at 60 mg/day, via the oral route, for a period 1-5 years.

Alzheimer's disease = assay: Amelioration of Alzheimer's disease in post-menopausal women on chronic administration; assay type: in vivo, human; conditions: post-menopausal women with Alzheimer's disease; 60 mg per day oral; after 2-12 months
Excerpt: Thus, the current invention provides methods for the treatment and prophylaxis of syndromes related to the loss of memory, learning, and cognitive function, often seen in women who are estrogen deprived, especially post-menopausal women. An example of such a syndrome is senile dementia of the Alzheimer's type. Beneficial effects, such as a decrease in memory loss, associated with administration of a compound of this invention become apparent after chronic administration.

SMILES | levels of ChAT, difference from the sham controls [1] | levels of ChAT versus the OVX controls [1] | loss of cognitive and memory functions relative to placebo [2] | effect on Alzheimer's disease (Alzheimer's disease)
C[C@]12CC[C@@H]3c4ccc(OC(=O)c5ccccc5)cc4CC[C@H]3[C@@H]1CC[C@@H]2O [estradiol benzoate, reference compound] | insignificant difference | significantly (p<0.05) increased |  | 
Cl.O=C(c1ccc(OCCN2CCCCC2)cc1)c1c(-c2ccc(O)cc2)sc2cc(O)ccc12 [raloxifene hydrochloride, [2-(4-hydroxyphenyl)-6-hydroxybenzo[b]thien-3-yl][4-[2-(1-piperidinyl)ethoxy]phenyl]methanone hydrochloride] | insignificant difference | significantly (p<0.05) increased | decrease in loss of these functions | amelioration of their disease
